Experimental data: PubChem BioAssay AID330 (DTP/NCI, 2004)
Where “and” joins values, the source holds several entries; their conditions need not be identical. Equal values may be shown once. Inconclusive results and toxic doses are left out. The calls were made as follows: active = survival T/C of 150% or more; inactive = T/C below 125% in these data.

System: P388 leukemia ip, CD2F1 mice, survival T/C
Assay: NCI In Vivo Anticancer Drug Screen. Data for tumor model P388 Leukemia (intraperitoneal) in CD2F1 (CDF1) mice
Conditions: endpoint: median survival time, higher = longer survival
Summary of the method: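 Mice carrying the transplanted tumor received test compound or vehicle. Survival was recorded in each group, and the value is the treated-group measurement divided by that of the vehicle-treated control group.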

[1] = dose: 50.0 mg/kg/injection, schedule: Q01DX009 (ip), vehicle: saline
[2] = dose: 100.0 mg/kg/injection, schedule: Q01DX009 (ip), vehicle: saline
[3] = dose: 200.0 mg/kg/injection, schedule: Q01DX009 (ip), vehicle: saline
[4] = dose: 50.0 mg/kg/injection, schedule: Q01DX005 (ip), vehicle: Klucel (hydroxypropylcellulose) (HPC)
[5] = dose: 12.5 mg/kg/injection, schedule: Q01DX009 (ip), vehicle: saline with Tween-80
[6] = dose: 25.0 mg/kg/injection, schedule: Q01DX009 (ip), vehicle: saline with Tween-80
[7] = dose: 50.0 mg/kg/injection, schedule: Q01DX009 (ip), vehicle: saline with Tween-80

Measured: T/C

C1=CC2(C=CC13OCCO3)OCCO2
inactive: dose: 25.0 mg/kg/injection, schedule: Q04DX003 (ip), vehicle: Klucel (hydroxypropylcellulose) (HPC) 107 % of control | dose: 50.0 mg/kg/injection, schedule: Q04DX003 (ip), vehicle: Klucel (hydroxypropylcellulose) (HPC) 99 % of control | dose: 100.0 mg/kg/injection, schedule: Q04DX003 (ip), vehicle: Klucel (hydroxypropylcellulose) (HPC) 103 % of control

CNC(=S)NNc1cccc2ccccc12
inactive: dose: 12.5 mg/kg/injection, schedule: Q01DX009 (ip), vehicle: other 97 % of control | dose: 25.0 mg/kg/injection, schedule: Q01DX009 (ip), vehicle: other 101 % of control | dose: 50.0 mg/kg/injection, schedule: Q01DX009 (ip), vehicle: other 100 % of control | dose: 100.0 mg/kg/injection, schedule: Q01DX009 (ip), vehicle: other 103 % of control and 96 % of control | dose: 200.0 mg/kg/injection, schedule: Q01DX009 (ip), vehicle: other 103 % of control and 96 % of control | dose: 400.0 mg/kg/injection, schedule: Q01DX009 (ip), vehicle: other 94 % of control

O=C1CCCC(=O)OCCOCCOCCOCCOCCO1
inactive: dose: 12.5 mg/kg/injection, schedule: Q01DX009 (ip), vehicle: saline 104 % of control and 108 % of control | dose: 25.0 mg/kg/injection, schedule: Q01DX009 (ip), vehicle: saline 104 % of control and 95 % of control | [1] 104 % of control and 108 % of control and 120 % of control | [2] 105 % of control | [3] 105 % of control

CCCCOC(=O)CCC(CC(=O)OCCCC)C(=O)OCCCC (stereo not given)
inactive: dose: 50.0 mg/kg/injection, schedule: Q01DX005 (ip), vehicle: saline 103 % of control | dose: 100.0 mg/kg/injection, schedule: Q01DX005 (ip), vehicle: saline 103 % of control | dose: 200.0 mg/kg/injection, schedule: Q01DX005 (ip), vehicle: saline 105 % of control

CN(C)CCn1c2nc(=O)[nH]c(=O)c-2nc2ccccc21
inactive: dose: 6.25 mg/kg/injection, schedule: Q01DX005 (ip), vehicle: Klucel (hydroxypropylcellulose) (HPC) 93 % of control | dose: 12.5 mg/kg/injection, schedule: Q01DX005 (ip), vehicle: Klucel (hydroxypropylcellulose) (HPC) 100 % of control | dose: 25.0 mg/kg/injection, schedule: Q01DX005 (ip), vehicle: Klucel (hydroxypropylcellulose) (HPC) 101 % of control | [4] 98 % of control

O=C(c1ccccc1)N1OC2C=CC1C2 (stereo not given)
inactive: [5] 100 % of control | [6] 89 % of control | [7] 100 % of control and 103 % of control

COc1ccc2nc(NCCNCCO)cc(NCCNCCO)c2c1
inactive: dose: 30.0 mg/kg/injection, schedule: Q01DX005 (ip), vehicle: water 98 % of control | dose: 60.0 mg/kg/injection, schedule: Q01DX005 (ip), vehicle: water 97 % of control

CC(=O)c1c(CO[N+](=O)[O-])n([O-])c2ccccc2[n+]1=O
inactive: dose: 60.0 mg/kg/injection, schedule: Q01DX005 (ip), vehicle: saline with Tween-80 106 % of control | dose: 120.0 mg/kg/injection, schedule: Q01DX005 (ip), vehicle: saline with Tween-80 104 % of control

FC(F)(F)c1cccc(C(Nc2nncs2)Nc2nncs2)c1
inactive: dose: 50.0 mg/kg/injection, schedule: Q01DX005 (ip), vehicle: saline with Tween-80 96 % of control | dose: 100.0 mg/kg/injection, schedule: Q01DX005 (ip), vehicle: saline with Tween-80 91 % of control | dose: 200.0 mg/kg/injection, schedule: Q01DX005 (ip), vehicle: saline with Tween-80 88 % of control

O=C1OC2=C(CCc3nc(-c4ccccc4)sc32)C(N(c2ccccc2)c2ccccc2)C1(Cl)Cl (stereo not given)
inactive: [4] 96 % of control | dose: 100.0 mg/kg/injection, schedule: Q01DX005 (ip), vehicle: Klucel (hydroxypropylcellulose) (HPC) 90 % of control | dose: 200.0 mg/kg/injection, schedule: Q01DX005 (ip), vehicle: Klucel (hydroxypropylcellulose) (HPC) 86 % of control

CCOC(=O)CNc1c2ccc(Cl)cc2nc2ccc(OC)cc12
inactive: dose: 6.25 mg/kg/injection, schedule: Q01DX009 (ip), vehicle: saline with Tween-80 97 % of control | [5] 104 % of control | [6] 111 % of control | [7] 108 % of control | dose: 100.0 mg/kg/injection, schedule: Q01DX009 (ip), vehicle: saline with Tween-80 104 % of control

Nc1ccc2nnnn2n1
inactive: [1] 100 % of control | [2] 98 % of control | [3] 98 % of control

C[CH2][Ge]([CH3])([CH2]C)[CH2]CCC[CH2][Sn]([CH3])([CH3])[CH3]
inactive: [1] 98 % of control | [2] 99 % of control | [3] 97 % of control
